The nature of data set [1]: Overnight malodor study: morning mouth air VSC (H2 S, CH3 SH) by gas chromatography. Type of data set: in vivo, human. As for the experimental part:
Subjects participating in this study maintained their normal nightly oral hygiene procedure for the duration of the study. In addition, all participants were asked to refrain from eating odoriferous foods at least 24 hours prior to their appointment for measurement of VSC's.
Subjects reported directly to the laboratory each morning for measurement of mouth air VSC levels. This measurement was the baseline (pretreatment) level of VSC. Selection for the study was based on morning levels of H2 S above 30 parts per billion (ppb) and CH3 SH above 20 ppb. Subjects fulfilling this criteria received a treatment to use that evening. Immediately before retiring to bed, the subjects rinsed vigorously for 30 seconds using the assigned treatment. The following morning the subject returned to the lab for analysis of mouth air VSC. This measurement was the post-treatment value. These treatments were assigned in a random, crossover design experiment.
Levels of VSC in subject's mouth air were determined using a gas chromatography system equipped with a flame photometric detector. […] Analysis of variance tested for significant treatment differences.
Differences between treatment were tested by analysis of variance using post minus pretreatment levels of mouth air VSCs.

For data set [2] the following is noted: cited from earlier work.
For data set [3], the system named is Fusobacterium nucleatum (ATCC 10953). Type of data set: cell-based. The source says:
The objective of this study was to evaluate the use of pure cultures or oral malodor-causing bacteria as the source of malodor instead of human subjects. Cultures of Fusobacterium nucleatum, Veillonella parvula and Prevotella sp. are well recognized producers of VSC's due to their ability to digest amino acids including cysteine and methionine. The most widely investigated of these is F. nucleatum. Therefore, this organism was selected for this in vitro test. Evaluating a finished oral care composition spiked with Fusobacterium was considered, however, the detector in the Halimeter was adversely affected by alcohols. […] Therefore, the following methodology was applied to screen the effectiveness of various zinc salt solutions in reducing VSC's: Fusobacterium nucleatum (ATCC #10953) was transferred twice from frozen stock cultures and maintained by daily transfers in […]' broth (Difco or BBL). […] The tube is a scaled down version of a Kontes #181000 adapter inlet with hose connectors which is coupled to a 18×100 mm glass tube fitted with a tapered ground fitting. After one minute the Halimeter was connected to a port on the reaction tube and allowed to sample the VSC's in the solution via the vacuum pump. The peak reading recorded by the Halimeter was taken as the VSC measurement. The level of inoculum selected was determined by ppb of VSC's generated in inoculated water alone. […] Three different zinc salt solutions, ZnCl2, ZnSO4, and ZnO, were evaluated. […] Water was used as the control. (Table 1) The heading D% refers to the difference between the measurement of VSCs in ppb using a pure water solution and the measurement of VSCs in ppb using varying concentrations of zinc salts. Each experiment was run in triplicate.

Data set [4] in a line: Adherence of zinc to simulated dental plaque on steel wires, fluorimetric with 8-hydroxyquinoline.
Excerpt: To determine how readily zinc adheres to dental plaque, the adherence of zinc to simulated plaque grown on steel wires was fluorimetrically measured. Increasing concentrations of zinc solutions were used in the test oral compositions.
After the simulated plaque is developed on the wires, it is then immersed in the oral composition to be tested, which is followed by a rinse. Thereafter, the plaque coated wires are immersed in a 0.01% solution of 8-hydroxyquinoline prepared by dissolving the 8-hydroxyquinoline in 100% ethanol. Twenty (20) ml of this solution were then brought q.s. up to the correct concentration.
The conditions of data set [5]: 1 hour after using 31 or 18 mM; cited from earlier work.
The mark [6] stands for this setting: 0.25% zinc chloride, significant reduction from Baseline.
Where [7] appears, read: individual subjects 1-13 in table order, morning after 20 ml of 0.25% zinc chloride, 30 second rinse at bedtime.
[8] abbreviates: individual subjects 1-13 in table order, pretreatment, zinc chloride arm.
Setting [9] is: mean of 13 subjects, pretreatment, zinc chloride arm.

The text below walks through data of US6121315A, “Oral compositions containing a zinc compound” (priority 1999, dated 2000).

Structures are written as SMILES. Values joined by “and” are separate entries in the source; they are usually repeats but may differ in a detail not shown here. Identical values can stand only once. Like-named read-outs stand apart in the source and are kept apart here.

For the compound `[Cl-].[Cl-].[Zn+2]` [zinc], the “levels of CH3 SH and H2 S compared to baseline levels” value in data set [1] (overnight, morning breath, result in words) is “significantly reduced”.
Take `CC(C)[C@@H]1CC[C@@H](C)C[C@H]1OC(=O)CCC(=O)O` [monomenthyl succinate]: the solubility in water entry in data set [2] is recorded as “sparingly soluble”. Besides, the solubility in oil entry in data set [2] (relative to water) is “more soluble”.
For `CC1CCC(C(C)C)C(O)C1` (stereo not drawn) [Menthol, hexahydrothymol, reference compound], in data set [2], the solubility in alcohol result is reported as “highly soluble”.
Take `[Cl-].[Cl-].[Zn+2]` [ZnCl2, zinc chloride]: the “% D, difference from water in VSC” value is on record as -47.4% in data set [3] (0.01%, first run); -58.3% in data set [3] (0.01%, second run); -37.0% in data set [3] (0.01%, third run); -53.0% in data set [3] (0.05%, first run); -57.5% in data set [3] (0.05%, second run); -40.0% in data set [3] (0.05%, third run). For the same compound, the “% D, difference from water in VSC” value in data set [3] (0.1%, first run) is -53.8%; in data set [3] (0.1%, second run) it was -54.6%; in data set [3] (0.1%, third run) it was -43.1%; in data set [3] (0.2%, first run), -59.8%; in data set [3] (0.2%, second run), -60.4%; in data set [3] (0.2%, third run) it was -47.9%. Moreover, the “% D, difference from water in VSC” value was -63.2% in data set [3] (0.4%, first run); -58.9% in data set [3] (0.4%, second run); -47.4% in data set [3] (0.4%, third run). The “CH3 SH, Probability (p), t-test for differences from baseline” value in data set [1] (setting [6]) was “.0209”. Besides, in data set [1] (setting [6]), the “H2 S, Probability (p), t-test for differences from baseline” value is listed as “.0074”. The “CH3 SH levels, Post” value in data set [1] (setting [7]) was 50 ppb and 20 ppb and 63 ppb and 176 ppb and 41 ppb and 35 ppb and 29 ppb and 25 ppb and 133 ppb and 47 ppb and 16 ppb. The “H2 S levels, Post” value in data set [1] (setting [7]) is 41 ppb and 22 ppb and 162 ppb and 268 ppb and 129 ppb and 106 ppb and 35 ppb and 318 ppb and 32 ppb and 94 ppb and 17 ppb and 97 ppb. In addition, the “CH3 SH levels, Baseline” value in data set [1] (setting [8]) was 173 ppb and 46 ppb and 358 ppb and 115 ppb and 249 ppb and 61 ppb and 51 ppb and 99 ppb and 170 ppb and 217 ppb and 44 ppb and 59 ppb and 34 ppb. Also, the “H2 S levels, Baseline” value in data set [1] (setting [8]) is 344 ppb and 53 ppb and 522 ppb and 204 ppb and 644 ppb and 310 ppb and 91 ppb and 509 ppb and 191 ppb and 175 ppb and 81 ppb and 110 ppb and 170 ppb. Also, the “CH3 SH levels, Post, mean (x)” value in data set [1] (mean of 13 subjects, morning after 20 ml of 0.25% zinc chloride, baseline mean 129, water 76 to 65) is listed as 57 ppb. Besides, the “H2 S levels, Post, mean (x)” value in data set [1] (mean of 13 subjects, morning after 20 ml of 0.25% zinc chloride, baseline mean 262, water 164 to 113) was 114 ppb. Moreover, in data set [1] (setting [9]), the “CH3 SH levels, Baseline, mean (x)” value came to 129 ppb. The “H2 S levels, Baseline, mean (x)” value in data set [1] (setting [9]) is reported as 262 ppb. In addition, the “development of VSC's overnight in vivo” value in data set [1] (summary statement in words) is on record as “prevent or inhibit”. Moreover, in data set [4] (ZnCl2 0.001%, 0.010%, 0.025%, 0.050% and 0.100%), the “amount of fluorescence in dental plaque vs concentration” value is reported as “the amount of fluorescence increased with increasing zinc concentration”. Further, the “lowest concentration at which fluorescence from zinc was detectable in dental plaque” value in data set [4] (base oral composition identical to Example 2, excitation 360 nm, emission 530 nm or 590 nm) is 0.001 % (w/v).
For the compound `O=S(=O)([O-])[O-].[Zn+2]` [ZnSO4, zinc sulfate], the “% D, difference from water in VSC” value in data set [3] (0.01%, first run) is -52.0%; in data set [3] (0.01%, second run), -67.7%; in data set [3] (0.01%, third run) it was -38.7%; in data set [3] (0.05%, first run), -53.6%; in data set [3] (0.05%, second run), -51.3%; in data set [3] (0.05%, third run), -42.5%. The “% D, difference from water in VSC” value was -54.7% in data set [3] (0.1%, first run); -58.6% in data set [3] (0.1%, second run); -42.4% in data set [3] (0.1%, third run); -58.1% in data set [3] (0.2%, first run); -67.4% in data set [3] (0.2%, second run); -48.1% in data set [3] (0.2%, third run). The “% D, difference from water in VSC” value in data set [3] (0.4%, first run) is -65.0%; in data set [3] (0.4%, second run), -58.2%; in data set [3] (0.4%, third run), -51.0%.
For the compound `[O]=[Zn]` [ZnO, zinc oxide], the “% D, difference from water in VSC” value in data set [3] (0.01%, first run) is on record as -53.7%; in data set [3] (0.01%, second run), -54.9%; in data set [3] (0.01%, third run) it was -40.0%; in data set [3] (0.05%, first run) it was -48.7%; in data set [3] (0.05%, second run), -51.8%; in data set [3] (0.05%, third run), -37.5%. Also, the “% D, difference from water in VSC” value was -58.2% in data set [3] (0.1%, first run); -57.6% in data set [3] (0.1%, second run); -42.1% in data set [3] (0.1%, third run); -59.4% in data set [3] (0.2%, first run); -63.5% in data set [3] (0.2%, second run); -47.9% in data set [3] (0.2%, third run). Besides, the “% D, difference from water in VSC” value in data set [3] (0.4%, first run) is on record as -60.2%; in data set [3] (0.4%, second run) it was -70.5%; in data set [3] (0.4%, third run), -54.1%.
For the compound `O=S(=O)([O-])c1ccc(O)cc1.O=S(=O)([O-])c1ccc(O)cc1.[Zn+2]` [zinc phenolsuphonate], the oral zinc concentration entry in data set [5] is “markedly increased”.
